Test results from ChEMBL document CHEMBL1155061, “Conjugates of gonadotropin releasing hormone (GnRH) with carminic acid: Synthesis, generation of reactive oxygen species (ROS) and biological evaluation” (Bioorg Med Chem, 2008).
Calls of active or inactive are those of the source. The rule behind the calls is not given here.

What was measured:
[1] = Stimulation of ERK phosphorylation in alphaT3-1 cells; format: cell-based
Pituitary gland cell = assay: Effect on LH release in rat pituitary cells after 4 hrs; format: functional, cell-based

Q: With `CC(C)C[C@H](NC(=O)[C@@H](CCCCN)NC(=O)[C@H](Cc1ccc(O)cc1)NC(=O)[C@H](CO)NC(=O)[C@H](Cc1c[nH]c2ccccc12)NC(=O)[C@H](Cc1cnc[nH]1)NC(=O)[C@@H]1CCC(=O)N1)C(=O)N[C@@H](CCCNC(=N)N)C(=O)N1CCC[C@H]1C(=O)NCC(N)=O` as the compound, how does the Activity [1] read?
A: Its Activity is “Active”.

Q: And the Activity (Pituitary gland cell)?
A: The Activity was “Active”.

Q: Which results are given for `Cc1c(C(=O)NCCC(=O)NCCCC[C@@H](NC(=O)[C@H](Cc2ccc(O)cc2)NC(=O)[C@H](CO)NC(=O)[C@H](Cc2c[nH]c3ccccc23)NC(=O)[C@H](Cc2cnc[nH]2)NC(=O)[C@@H]2CCC(=O)N2)C(=O)N[C@@H](CC(C)C)C(=O)N[C@@H](CCCNC(=N)N)C(=O)N2CCC[C@H]2C(=O)NCC(N)=O)c(O)cc2c1C(=O)c1c(O)c([C@H]3O[C@H](CO)[C@@H](O)[C@H](O)[C@H]3O)c(O)c(O)c1C2=O`?
A: Activity [1]: Active; Activity (Pituitary gland cell): Active
